Structures are written as SMILES.

The experiment concerns the target T1, UGT2B7 (UDP-glycosyltransferase) (Homo sapiens, UniProt P16662).
T1 construct: human liver microsomes encapsulated in hydrogel (HLM-Gel)
T1 sequence (P16662 24-529): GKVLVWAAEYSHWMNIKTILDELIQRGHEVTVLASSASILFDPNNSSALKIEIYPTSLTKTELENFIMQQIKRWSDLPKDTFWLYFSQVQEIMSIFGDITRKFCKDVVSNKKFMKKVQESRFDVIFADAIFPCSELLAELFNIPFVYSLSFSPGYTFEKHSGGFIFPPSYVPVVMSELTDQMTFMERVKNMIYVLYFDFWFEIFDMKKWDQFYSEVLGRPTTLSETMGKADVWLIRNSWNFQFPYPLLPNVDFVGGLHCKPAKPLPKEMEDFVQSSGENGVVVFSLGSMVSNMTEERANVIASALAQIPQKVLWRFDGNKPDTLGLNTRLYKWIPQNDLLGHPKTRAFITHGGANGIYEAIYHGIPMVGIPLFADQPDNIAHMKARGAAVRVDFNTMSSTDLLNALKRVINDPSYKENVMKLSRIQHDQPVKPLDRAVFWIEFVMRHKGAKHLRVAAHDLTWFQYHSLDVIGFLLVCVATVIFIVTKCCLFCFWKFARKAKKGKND
Kind of experiment: inhibition of AZT glucuronidation in human liver microsomes in the Bio-PK dynamic system, HPLC, Ki fitted by MATLAB model. The experiment is classed as biochemical. (Liver microsomes are a subcellular fraction often used to study metabolism.)

For `OC(Cn1cncn1)(Cn1cncn1)c1ccc(F)cc1F` [FCZ, fluconazole], affinity was put at a Ki of 14 µM.

As a reminder, the Ki is a measure of affinity in units of concentration, obtained from inhibition or displacement. Read a low Ki as tighter binding.
